What was measured:
Assay type in all cases: cell-based, human
[1] = system: tartrate resistant acid phosphatase-5 (TRAP5); experiment: TRAP5 mRNA expression in OCL (quantitative RT-PCR); conditions: OCL after coculture with OPM-2
Experimental: In osteoclast coculture experiments, OPM-2 cells (1×10^6 cells) were added to osteoclasts in 60 mm dishes (4×10^6 cells per dish) in 3 ml MEM medium supplemented with 10% FCS, 100 U/ml penicillin, 100 μg/ml streptomycin. GSI15 (30 μM, 60 μM) or DMSO (equivalent to 60 μM) as solvent control were added to each well (daily treatment). After 48 h, 0.5 ml OPM-2 cell suspension were harvested per well and subjected to AnnexinV-FITC/PI staining. Remaining OPM-2 cells were harvested and lysed for either RNA or protein preparation. The monolayer of osteoclasts was washed twice with ice-cold PBS and then lysed for either RNA or protein preparation directly on the plate.
Quantitative real-time reverse transcription-PCR (RT-PCR) analysis was performed using the following primer/probe sets: human Hes-1 (forward—[…], reverse—[…], probe—FAM-[…]-TAMRA) human TRAP5 (forward—[…], reverse—[…], probe FAM-[…]-TAMRA), human beta2-microglobulin (forward—ccc cca ctg aaa aag atg ag, reverse—atc caa tcc aaa tgc ggc, probe—FAM-CCTGCCGTGTGAACCATGTGACTTT-TAMRA) served as normalizer. […] For the RT-PCR reaction SuperScript™ III Platinum® One-Step Quantitative RT-PCR System (Invitrogen, Karlsruhe, Germany) was used. 50 ng total RNA were used per reaction, each RNA sample was analyzed in three replicates. […] Normalized mRNA expression data were then calculated as values relative to the respective untreated sample.

OCL = experiment: PARP cleavage in osteoclasts (OCL), mono- and coculture
Experimental: Human MM cell lines used were as follows: NCI-H929, OPM-2, LP-1, RPMI-8226, U266 (DSMZ, Braunschweig, Germany). Cell lines were cultured in RPMI 1640 medium (Biochrom, Berlin, Germany) supplemented with 10% heat-inactivated fetal calf serum (FCS, Gibco, Karlsruhe, Germany), 1 mM sodium pyruvate and 100 units/ml penicillin and 100 μg/ml streptomycin (Gibco). Human osteoclasts were obtained as described in the reference of Zavrski I, Krebbel H, Wildemann B, et al. Proteasome inhibitors abrogate osteoclast differentiation and osteoclast function. Biochem Biophys Res Commun. 2005; 333:200-205. Briefly, peripheral blood mononuclear cells (PBMC) were isolated from whole blood of healthy volunteers, using a Ficoll-Hypaque density gradient. The adherent fraction of the isolated mononuclear cells was cultured for 21 days in MEM medium (Sigma-Aldrich Chemie, Taufkirchen, Germany) supplemented with 10% FCS, 100 U/ml penicillin, 100 μg/ml streptomycin, 50 ng/ml M-CSF, and 25 ng/ml RANKL (osteoclastogenic medium), before coculture experiments and treatment with the inventive compounds started. […]
Whole cell extracts were prepared and quantified as described in Jundt F, Anagnostopoulos I, Forster R, Mathas S, Stein H, Dorken B. Activated Notch1 signaling promotes tumor cell proliferation and survival in Hodgkin and anaplastic large cell lymphoma. […]

U266 cells = experiment: Cell cycle analysis (propidium iodide), U266
Experimental: The compound according to example 1, hereinafter referred to as GSI15, (compound RH02015SC, Maybridge, Acros Organics, Geel, Belgium) was freshly dissolved as 26 mM stock solution in Dimethylsulfoxide (DMSO). Multiple myeloma therapeutics used were melphalan (marketed as Alkeran®, GlaxoSmithKline, Munich, Germany) and bortezomib (marketed as Velcade®, Janssen-Cilag, Neuss, Germany). Melphalan was freshly dissolved at 10 mg/ml in 0.9% NaCl-solution. Bortezomib was freshly dissolved at 100 ng/ml in 0.9% NaCl solution. Gamma Secretase Inhibitor (GSI) treatment for apoptosis assessment by AnnexinV/PI staining, cell cycle analysis and coculture experiments was performed in 6-well plates. GSI15 stock solution was added directly to the cell suspension. GSI treatment for assaying proliferation was performed in 96-well plates. […]
For cell cycle analysis 2×10^5 cells were spun down, medium was aspirated and cells washed with PBS. […] After 10 minutes incubation in the dark at room temperature, cells were analyzed by flow cytometry. The amount of apoptotic cells was determined by AnnexinV/propidium iodide staining using Human AnnexinV-FITC Kit (Bender Medsystems, Vienna, Austria), according to manufacturer's protocol. […] Cells were then spun down again, resuspended in binding buffer containing PI and analyzed by flow cytometry.

## CC(C)c1ccc(S(=O)(=O)Nc2cccnc2Oc2ccc(Cl)cc2)cc1 [Example 1, N-(2-(4-chlorophenoxy)pyridin-3-yl)-4-isopropylbenzenesulfonamide]
[1]
  TRAP5 mRNA expression: completely blocked the upregulation of TRAP5 mRNA expression
OCL; OCL alone
  PARP cleavage: did not induce PARP cleavage
OCL; OCL cocultured with OPM-2 cells, high doses of GSI15
  PARP cleavage: it was induced
U266 cells
  sub-G1 fraction / cell cycle: no change was detected

From US20110251220A1, “Pharmaceutical compositions comprising gamma secretase modulators” (priority 2008, published 2011)
